Assay results taken from patent US9408848B2, “Fluorescent CDK inhibitors for treatment of cancer” (Georgetown University, priority 2008, dated 2016).
“Also recorded” adds a separate entry of the source. Like-named read-outs stand apart in the source and are kept apart here.

Tests used:
MDA-MB-231 [1] = experiment: Cell viability assay (WST-1); type: cell-based, human; conditions: read-out: IC50 (concentration yielding 50% growth inhibition), MDA-MB-231, WST-1, 48 h
Method: (§1) (10%), 2 mM L-glutamine, and 50 μg/mL each of antibiotics, namely penicillin, streptomycin, and neomycin at 37° C. in a humidified incubator containing 5% CO2
(§2) Briefly human breast cancer cells were seeded into a 96-well plate at 3000 cells per well in DMEM containing 10% FBS. Following 24 hours attachment period, compounds were dissolved in DMSO and serially diluted in tissue culture media and added to the cells in triplicate, and incubated for 48 h at 37° C. Control cells were treated with equal amount of DMSO. After 48 h incubation, cell viability was measured by WST-1 assay according to the manufacturer's instructions (Roche). […] The formazan absorbance, which correlates to the number of living cells, was measured at 450 nm and 630 nm as reference filter using a microplate reader. (Ultramark, Microplate Imaging System, Bio-Rad). The IC50 was calculated from the graph of the log of the compound concentration versus the fraction of the surviving cells.

MCF-7 [2] = experiment: Cell viability assay (WST-1); type: cell-based, human; conditions: MCF-7, WST-1, 48 h
Method: as §1, §2

CL 10.3 = experiment: Effect on multidrug resistant cell lines, IC50 72 hours; type: cell-based; conditions: for IC50: 72 h, CL 10.3, Breast (MDR); for CL 10.3 IC50/MCF-7 IC50: ratio, 72 hours; for activity in multidrug resistance cell line: MCF7 versus CL 10.3
Source text: (§3) The effect of VMY-1-103 on multidrug resistant cell lines was studied and compared with paclitaxel. Table 4 represents the IC50 of the compounds in the individual cell lines along with the ratio of the difference.

MCF-7 [3] = experiment: as above; type: cell-based; conditions: Homo sapiens, MCF7, 72 h; MCF-7, Breast
Source text: as §3

CDK1/cyclinB = molecular target: T1, CDK1/cyclinB (Homo sapiens, UniProt P06493); experiment: Kinase assay ([γ-33P]-ATP, histone H1); type: biochemical; conditions: 0.1 µM
T1 construct: purchased Millipore, Dundee, UK (screening service)
T1 sequence (P06493 whole entry): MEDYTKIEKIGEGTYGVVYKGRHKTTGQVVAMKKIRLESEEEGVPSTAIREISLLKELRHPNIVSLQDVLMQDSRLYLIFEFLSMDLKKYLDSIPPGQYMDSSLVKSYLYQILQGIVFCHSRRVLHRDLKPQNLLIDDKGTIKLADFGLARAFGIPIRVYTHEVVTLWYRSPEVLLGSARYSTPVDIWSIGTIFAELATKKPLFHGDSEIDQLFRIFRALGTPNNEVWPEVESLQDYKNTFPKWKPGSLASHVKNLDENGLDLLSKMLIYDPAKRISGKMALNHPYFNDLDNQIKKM
T1 sequence (P14635 whole entry partner): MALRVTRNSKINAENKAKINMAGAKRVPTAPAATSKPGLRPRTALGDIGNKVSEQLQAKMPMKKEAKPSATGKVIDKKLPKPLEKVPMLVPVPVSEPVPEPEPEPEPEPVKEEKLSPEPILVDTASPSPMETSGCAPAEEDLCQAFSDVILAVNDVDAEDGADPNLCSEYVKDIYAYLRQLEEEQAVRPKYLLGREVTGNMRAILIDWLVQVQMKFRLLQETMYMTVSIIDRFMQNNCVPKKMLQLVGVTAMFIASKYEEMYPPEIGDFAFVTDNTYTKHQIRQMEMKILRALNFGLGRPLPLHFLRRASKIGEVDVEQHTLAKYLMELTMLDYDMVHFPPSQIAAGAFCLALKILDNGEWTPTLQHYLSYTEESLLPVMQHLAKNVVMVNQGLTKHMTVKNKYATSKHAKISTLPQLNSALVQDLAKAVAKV
Method: (§4) The final reaction was carried out in a 25 μL solution.
(§5) Briefly assays were performed with a Biomek 2000 Laboratory Automation Workstation in a 96-well format (Beckman instruments, Palo Alto, Calif., U.S.A) for 40 min at ambient temperature in 25 μL incubations using [γ-^33P]-ATP. In a final reaction volume of 25 μL corresponding CDK/cyclin (h) (5-10 mU) was incubated with 8 mM MOPS pH 7.0, 0.2 mM EDTA, 0.1 mg/mL histone H1, 10 mM MgAcetate and [γ-^33P-ATP](specific activity approx. 500 cpm/pmol, concentration as required). The reaction was initiated by the addition of the MgATP mix. After incubation for 40 min at room temperature, the reaction was stopped by the addition of 5 μL of a 3% phosphoric acid solution.

CDK3/cyclinE = molecular target: T2, CDK3/cyclinE (Homo sapiens, UniProt Q00526); experiment: Kinase assay ([γ-33P]-ATP, histone H1); type: biochemical; conditions: compound 0.1 μM
T2 construct: purchased Millipore, Dundee, UK (screening service)
T2 sequence (Q00526 whole entry): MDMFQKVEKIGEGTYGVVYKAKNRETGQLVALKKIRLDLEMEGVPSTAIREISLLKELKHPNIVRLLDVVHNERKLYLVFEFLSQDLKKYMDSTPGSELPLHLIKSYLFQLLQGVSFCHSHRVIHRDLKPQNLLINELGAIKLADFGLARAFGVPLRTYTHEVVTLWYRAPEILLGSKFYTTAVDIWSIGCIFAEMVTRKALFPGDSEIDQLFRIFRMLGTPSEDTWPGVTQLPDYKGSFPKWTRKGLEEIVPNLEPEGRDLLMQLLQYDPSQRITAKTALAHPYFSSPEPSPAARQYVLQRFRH
T2 sequence (P24864 whole entry partner): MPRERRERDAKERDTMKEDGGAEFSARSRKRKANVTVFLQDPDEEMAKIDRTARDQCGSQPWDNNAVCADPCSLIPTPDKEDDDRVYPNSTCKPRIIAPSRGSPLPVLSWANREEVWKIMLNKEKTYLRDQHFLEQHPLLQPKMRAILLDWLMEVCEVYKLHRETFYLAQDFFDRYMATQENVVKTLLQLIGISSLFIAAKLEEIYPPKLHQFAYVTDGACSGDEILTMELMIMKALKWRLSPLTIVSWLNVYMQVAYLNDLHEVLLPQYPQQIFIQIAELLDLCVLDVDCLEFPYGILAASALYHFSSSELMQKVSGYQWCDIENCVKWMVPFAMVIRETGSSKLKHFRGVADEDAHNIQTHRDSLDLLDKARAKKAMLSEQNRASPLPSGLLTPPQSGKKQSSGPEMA
Method: as §4, §5

CDK7/cyclinH/MATI = molecular target: T3, CDK7/cyclinH/MATI (Homo sapiens, UniProt P50613); experiment: Kinase assay ([γ-33P]-ATP, histone H1); type: biochemical; conditions: for inhibition at 0.1 µM: read-out: % inhibition of kinase activity, CDK7/cyclinH/MATI
T3 construct: purchased Millipore, Dundee, UK (screening service)
T3 sequence (P50613 whole entry): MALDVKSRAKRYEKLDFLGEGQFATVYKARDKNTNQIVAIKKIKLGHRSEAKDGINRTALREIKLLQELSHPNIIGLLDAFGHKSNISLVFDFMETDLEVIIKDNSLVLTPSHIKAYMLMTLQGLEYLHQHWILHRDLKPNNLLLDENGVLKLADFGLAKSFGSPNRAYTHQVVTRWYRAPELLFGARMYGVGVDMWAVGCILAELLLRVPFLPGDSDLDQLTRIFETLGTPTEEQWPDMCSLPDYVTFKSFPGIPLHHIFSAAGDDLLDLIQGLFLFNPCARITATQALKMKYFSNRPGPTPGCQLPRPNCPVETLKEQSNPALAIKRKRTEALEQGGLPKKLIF
T3 sequence (P51946 whole entry partner): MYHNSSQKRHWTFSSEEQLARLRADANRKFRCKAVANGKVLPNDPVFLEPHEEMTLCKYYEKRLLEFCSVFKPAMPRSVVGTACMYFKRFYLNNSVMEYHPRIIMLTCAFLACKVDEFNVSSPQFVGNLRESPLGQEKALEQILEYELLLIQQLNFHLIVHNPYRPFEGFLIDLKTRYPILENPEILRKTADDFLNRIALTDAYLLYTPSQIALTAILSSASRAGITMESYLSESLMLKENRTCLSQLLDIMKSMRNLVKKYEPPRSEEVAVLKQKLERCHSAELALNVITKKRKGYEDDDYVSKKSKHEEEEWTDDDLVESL
T3 sequence (P51948 whole entry partner): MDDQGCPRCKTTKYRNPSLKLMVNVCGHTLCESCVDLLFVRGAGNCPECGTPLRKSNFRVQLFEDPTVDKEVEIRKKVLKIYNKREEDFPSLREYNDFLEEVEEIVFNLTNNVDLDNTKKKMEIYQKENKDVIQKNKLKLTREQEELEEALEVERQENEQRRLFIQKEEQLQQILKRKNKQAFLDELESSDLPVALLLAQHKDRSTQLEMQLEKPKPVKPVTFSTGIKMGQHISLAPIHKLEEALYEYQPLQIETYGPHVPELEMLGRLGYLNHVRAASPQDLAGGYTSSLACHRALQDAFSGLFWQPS
Method: . The final reaction was carried out in a 25 μL solution. The respective kinases (at […] were incubated with 8 mM MOPS (pH 7.0), 0.2 mM EDTA, 0.1 mg/ml histone H1, 10 mM MgAcetate and [γ-33P-ATP] (specific activity approximately 500 cpm/pmol, concentration as required). The reaction was then initiated by the addition of the MgATP mix. The reaction was stopped after 40 min of incubation by adding 5 μL of a 3% phosphoric acid solution. 10 μL of the reaction was spotted onto a P30 filter mat and washed 3 times for 5 min in 75 mM phosphoric acid and one in methanol prior to drying and counted radioactivity by scintillation counting. […]. Table 1 summarizes the cytotoxic effects of VMY compounds and its controls on breast cancer cell line.
as §5, with “Kinase selectivity of compounds VMY-1-101 and VMY-1-103 were screened at Millipore, Dundee, UK. Briefly” for “Briefly”, “solution. From the reaction, 10 μL was spotted onto a P30 filtermat and washed three times for 5 minutes in 75 mM phosphoric acid and once in methanol prior to dying and scintillation counting.” for “solution.”

phospho-Cdc2 = experiment: Western blot of G2/M cell cycle proteins; type: cell-based, human; conditions: MDA-MB-231, 10 μM, 1-24 h
Method: The expression levels principal component proteins, such as, phospho-Cdc2, Cdc2 and cyclin B were specific assessed.
Western blotting was performed according to literature procedure. […] Lysates were cleared by centrifugation at 12000 rpm for 15 min at 4° C. and protein was estimated by detergent compatible BCA protein assay kit (Pierce). Equivalent amounts of total proteins were resolved by SDS-PAGE (10%) and transferred to PVDF membrane. Membranes were blocked by 5% non-fat powdered milk in TBST overnight. Membranes were incubated with indicated primary antibodies for 2 hours followed by HRP-conjugated secondary antibodies for 1 hr and developed using enhanced chemiluminescence kit (Perkin Elmer).

MDA-MB-231 [4] = experiment: Cell cycle analysis by flow cytometry (propidium iodide); type: cell-based, human; conditions: for % G1 / % S / % Sub-G1: MDA-MB-231, 24 hrs, 5 μM
Method: (§6) 5 μM concentrations were used for all drugs tested. The cells were exposed to the vehicle (DMSO) or […] of the CDK inhibitors for 24 hrs. The cell cycle distribution was then assessed using standard procedures.

MCF-7 [5] = experiment: as above; type: cell-based, human; conditions: for % G1 / % S / % Sub-G1: MCF-7, 24 hrs, 5 μM
Method: as §6

MDA-MB-231 cells [6] = experiment: Apoptotic signaling, Western blot of apoptosis related proteins; type: cell-based, human
Method: In order to understand whether VMY-1-101 and VMY-1-103 compounds were able to induce apoptotic cell death, the expression of anti- and pro-apoptotic proteins in MDA-MB-231 cells following treatment with 10 μM drugs for 48 hours was evaluated first. […] This is further confirmed with proapoptotic 116 kDa poly (ADP-ribose) polymerase protein (PARP) into its 89-kDa fragments. […].
Western blotting was performed according to literature procedure. In brief, cell pellets were collected at the indicated times after treatment with compounds, suspended in 100 μL of lysis buffer (50 mM Tris-HCl, 150 mM NaCl, 1 mM EGTA, 1 mM EDTA, 20 mM NaF, 100 mM Na3VO4, 0.5% NP-40, 1% Triton X-100, 1 mM PMSF, 5 μg/ml aprotinin, 5 μg/ml leupeptin), vortexed twice and incubated in an ice bath for 30 min. Lysates were cleared by centrifugation at 12000 rpm for 15 min at 4° C. and protein was estimated by detergent compatible BCA protein assay kit (Pierce). Equivalent amounts of total proteins were resolved by SDS-PAGE (10%) and transferred to PVDF membrane. Membranes were blocked by 5% non-fat powdered milk in TBST overnight. Membranes were incubated with indicated primary antibodies for 2 hours followed by HRP-conjugated secondary antibodies for 1 hr and developed using enhanced chemiluminescence kit (Perkin Elmer).

MDA-MB-231 cells [7] = experiment: Reversibility of antiproliferative effect (24 h/MC/48 h, cell cycle by flow cytometry); conditions: MDA-MB-231, 5 μM and 10 μM, 24 h then 48 h drug free medium
Method: The cell cycle distribution was then analyzed by flow cytometry.
The effect of CDK inhibitors on cell cycle progression was analyzed by flow cytometry. […] Cells were trypsinized, centrifuged (2000 rpm) and cell pellets were collected. […] The cell cycle distribution was evaluated on DNA plots using the Modfit software (Verity softwarehouse, Topsham, Me.).

Row | SMILES | IC50 (MDA-MB-231 [1]; Homo sapiens) | IC50 (CL 10.3) | CL 10.3 IC50/MCF-7 IC50 (CL 10.3) | IC50 (MCF-7 [3]) | expression of phospho-Cdc2 (T161, Y15) (phospho-Cdc2) | % G1 (MDA-MB-231 [4]) | % S (MDA-MB-231 [4]) | % Sub-G1 (MDA-MB-231 [4]) | % G1 (MCF-7 [5]) | % S (MCF-7 [5]) | % Sub-G1 (MCF-7 [5]) | other results
1 | CN(C)c1cccc2c(S(=O)(=O)NCCN)cccc12 [Dansyl ethylenediamine, reference compound] | > 100 µM | – | – | – | – | – | – | – | – | – | – | IC50 (MCF-7 [2]; Homo sapiens, MCF7, read-out: IC50 (concentration yielding 50% growth inhibition)): > 100 µM
2 | CC(=O)O[C@H]1C(=O)[C@@]2(C)[C@H]([C@H](OC(=O)c3ccccc3)[C@]3(O)C[C@H](OC(=O)[C@H](O)[C@@H](NC(=O)c4ccccc4)c4ccccc4)C(C)=C1C3(C)C)[C@]1(OC(C)=O)CO[C@@H]1C[C@@H]2O [Paclitaxel, reference compound] | – | 47.5 µM | 2375 | 2 nM | – | – | – | – | – | – | – | –
3 | CC(C)[C@H](CO)Nc1nc(Nc2ccc(C(=O)O)c(Cl)c2)c2ncn(C(C)C)c2n1 [Purvalanol B, reference compound] | – | – | – | – | no affect on the phospho-Cdc2 expression; also recorded: does not show any affect on expression of phosphor-Cdc2 | 58.69 ± 0.54% | 29.86 ± 0.70% | 1.19 ± 0.01% | 64.37 ± 0.57% | 20.54 ± 0.57% | 1.10 ± 0.03% | % inhibition of kinase activity, CDK1/cyclinB (CDK1/cyclinB): 78 ± 6%; % inhibition of kinase activity, CDK3/cyclinE (CDK3/cyclinE): 89 ± 0%; IC50 (MDA-MB-231 [1]): > 100 µM; IC50 (MCF-7 [2]; read-out: IC50 (concentration yielding 50% growth inhibition)): > 100 µM; % inhibition of kinase activity, CDK7/cyclinH/MATI (CDK7/cyclinH/MATI; compound 0.1 μM): 66 ± 1%
4 | CC[C@H](CO)Nc1nc(NCc2ccccc2)c2ncn(C(C)C)c2n1 [Roscovitine, 2-(R)-(1-ethyl-2-hydroxyethylamino)-6-benzylamino-9-isopropylpurine, reference compound] | – | – | – | – | – | 57.59 ± 0.44% | 26.29 ± 0.32% | 1.22 ± 0.06% | 63.83 ± 0.58% | 19.88 ± 0.74% | 0.73 ± 0.02% | inhibition at 0.1 µM (CDK7/cyclinH/MATI): 26 ± 5%; change in apoptosis protein levels (MDA-MB-231 cells [6]; MDA-MB-231, even at 40 μM): no change in protein levels; reversibility of G2/M arrest / antiproliferative effect (MDA-MB-231 cells [7]): went back to the normal stage after post incubation
5 | CC(C)[C@H](CO)Nc1nc(Nc2ccc(C(=O)NCCNS(=O)(=O)c3cccc4c(N(C)C)cccc34)c(Cl)c2)c2ncn(C(C)C)c2n1 [VMY-1-103, 2-Chloro-N-[2-(5-dimethylamino-naphthalene-1-sulfonylamino)-ethyl]-4-[2-(1-hydroxymethyl-2-methyl-propylamino)-9-isopropyl-9H-purin-6-ylamino]-benzamide] | 4.06 ± 1.32 µM | 44.3 µM | 9.8 | 4500 nM | decrease the phosphorylation level of G2/M checkpoint proteins; also recorded: time-dependent decrease in expression of phospho-Cdc2 | 51.87 ± 0.80% | 25.15 ± 0.53% | 2.17 ± 0.18% | 61.02 ± 0.28% | 16.26 ± 0.24% | 2.09 ± 0.08% | activity in multidrug resistance cell line (CL 10.3): moderate activity in a multidrug resistance cell line; activity in multidrug resistance cell line (CL 10.3; listed as VMY-103): comparable activity in both cell lines; substrate for p-glycoprotein (CL 10.3; inferred from MDR cell line (Table 4)): not a substrate for p-glycoprotein; inhibition at 0.1 µM (CDK7/cyclinH/MATI; compound 0.1 μM): 69 ± 2%; PARP cleavage (MDA-MB-231 cells [6]; MDA-MB-231, 10 μM, 48 hours): moderate cleavage of the 116-kDa full length PARP into an 89-kDa fragment; protein level of full length caspase 3 and 7 (MDA-MB-231 cells [6]; MDA-MB-231, 10 μM, 48 hours): decrease in protein level of full length caspase 3 and 7; effect on cell cycle progression (G2/M phase) (MDA-MB-231 [4]; MDA-MB-231, 5, 10 μM, 24 hrs): induced the cell cycle progression in G2/M phase; effect on cell cycle progression (G2/M phase) (MCF-7 [5]; MCF-7, 5, 10 μM, 24 hrs): induced the cell cycle progression in G2/M phase
